Test results from patent EP0539587A1, “ANTI[…]” (TSUMURA & CO., priority 1991, dated 1992).
Counter-ions that a name gives are not always drawn.

Experiments:
[1] = target: Human immunodeficiency virus reverse transcriptase (Human immunodeficiency virus type 1 group M subtype B, UniProt P04585); assay: Effects on reverse transcriptase activity ([3H]deoxythymidine triphosphate uptake into DNA); type: biochemical; conditions: reverse transcriptase inhibitory activity; 30 minutes at 37°C; polyrA-oligo dT template-primer; read-out: 50% inhibitory concentration (IC50) (converted)
Method: A reaction mixture having the composition indicated below was prepared.
50 µl of this reaction mixture was allowed to react for 30 minutes at 37°C.
Quantitative determination of the reaction product in the form of DNA was performed by measuring the uptake of the radioactivity of [³H]deoxythymidine triphosphate into DNA using ion exchange filter paper, taking that to represent reverse transcriptase inhibitory activity, and calculating the 50% inhibitory concentration (IC₅₀) of the test compound.

[2] = system: human immunodeficiency virus; assay: Test of anti-AIDS virus activity using clone H9 cells (p24 antigen in culture supernatant); type: cell-based; conditions: Human immunodeficiency virus 1, 120 h, p24 antigen in culture supernatant after 5 days, read-out: Rate of Inhibition (%)
Method: 1 x 10⁶ clone H9 cells (©T-cells) were placed in individual culture tubes. The serially diluted test drug was then placed in each tube. Roughly 100TCID₅₀ of human immunodeficiency virus (culture supernatant of H9/HTLV-IIIB cells) were then placed in each tube to infect the above-mentioned cells. After incubating the tubes for 1 hour at 37°C in the presence of 5% CO₂, the unabsorbed viral particles and test substance were removed by centrifugal separation (x3000 g, 5 minutes). Moreover, after again centrifugally washing (x3000 g, 5 minutes) the cells with fresh culture liquid, fresh culture liquid was added to each tube to prepare cell suspensions having a concentration of 0.2 x 10⁶ cells per milliliter. 0.5 ml of these cell suspensions were added to each well of a 24 well culture plate containing 0.5 ml of the serially diluted test drug. After incubating this plate for 5 days at 37°C in the presence of 5% CO₂, the amount of p24, which is the human immunodeficiency virus antigen in the culture supernatant, was measured, followed by calculation of the rate of inhibition (%) at the concentrations of the test drug indicated below.

`O=C(O)/C=C(\C(=O)O[C@H]1[C@@H]2OC(=O)c3cc(O)c(O)c(O)c3-c3c(cc(O)c(O)c3O)C(=O)OC[C@H]1O[C@@H](OC(=O)c1cc(O)c(O)c(O)c1)[C@@H]2O)[C@H]1c2c(cc(O)c(O)c2O)C(=O)O[C@@H]1C(=O)O` [Specific Example 1, repandusinic acid A monopotassium salt] gave an IC50 [1] of 103 nM, an inhibition at 0.195 µg/mL ([2]; 0.195 µg/ml) of 27.8% and an inhibition at 3.125 µg/mL ([2]; 3.125 µg/ml) of 66.7%. It also gave an inhibition at 12.5 µg/mL ([2]; 12.5 µg/ml) of 94.4%.
